One experiment concerns embryonal brain cells. Nature of the experiment: Growth-stimulating action on embryonal brain cells. Conditions: mammals. Type of experiment: cell-based.
The subject of experiment [1] is Hydra. In words: Head-specific determination in Hydra (interstitial parent cell determined to the nerve cell). Type of experiment: in vivo.
A short description of experiment [2]: Blood pressure effect upon intraventricular administration. Conditions: mammals. Type of experiment: in vivo.
The subject of experiment [3] is Hydra. Nature of the experiment: Mitogen action on cell division in Hydra. Type of experiment: in vivo.

Non-standard residues stand in square brackets, D forms with d. No end group written: not given here. pGlu = O=C1CC[C@@H](C(=O)O)N1

Turning to “[pGlu]PPGGSKVILF [peptide of the invention]”, the “action on growth of embryonal brain cells” value in the experiment with embryonal brain cells is on record as “growth-stimulating action”. In addition, the head-specific determination result in the experiment on Hydra [1] is given as “responsible for head-specific determination”. In addition, the “concentration at which the effect occurs (head-specific determination)” value in the experiment with Hydra [1] (order of magnitude) was ~10^-10 M. Moreover, the “effect on blood pressure” value in experiment [2] is given as “hypertensive (pressor) effect”. The “mitogen action, cell division of all types of cells” value with Hydra [3] was “acts as a mitogen”. In addition, the “concentration at which the effect occurs (mitogen)” value in the experiment on Hydra [3] (order of magnitude) is ~10^-10 M.

Values taken from US4457917A, “Peptide, process for its preparation and pharmaceutical composition containing same” (Max-Planck-Gesellschaft zur Foerderung der Wissenschaften …, priority 1981, dated 1984).
